Data: patent publication US5985822A, “Inhibition of glial cell proliferation with N-CAM homophilic peptides” (The Scripps Research Institute, priority 1995, dated 1999)

Tests used:
N-CAM = test: Levels of N-CAM expression in astrocytes by Western blotting (antisense experiments); type: cell-based, rat; settings: oligonucleotide added for 48 hours
Description: The amounts of N-CAM present in astrocytes were quantified by Western blotting. Cultures were grown as described and cellular material was lysed in buffer (phosphate buffered saline, pH 7.4, containing 0.5% NP-40, 350 μg/ml PMSF, 2 μg/ml aprotinin, 0.5 μg/ml leupeptin, and 0.7 μg/ml pepstatin A) at 4° C. Standard Western blotting techniques were employed either using cell lysate directly or after N-CAM immunoprecipitation. [^125 I]-Immunolabeled N-CAM was estimated by densitometry on a Molecular Dynamics PhosporImager using ImageQuant software.
[…]. After deprotection, the oligonucleotides were purified using HPLC, ethanol precipitated, solubilized in distilled water and added to the culture medium at the indicated concentrations.

[1] = tested on: rat forebrain astrocytes in primary culture; test: Astrocyte proliferation assay ([3H]-thymidine incorporation normalized to [35S]-methionine); type: cell-based; settings: for effect of oligonucleotide preincubation on inhibition of proliferation by N-CAM: 200 nM oligonucleotide 48 hours before 2 μg/ml N-CAM; for effect of oligonucleotide alone on proliferation: 200 nM, no N-CAM added
Description: Primary cultures of astrocytes were prepared from the forebrains of 4-5 day old neonatal rats. After decapitation and removal of the forebrains from the skull, the meninges were carefully peeled off, and forebrain tissue was triturated in sterile phosphate buffered saline (PBS) using firepolished pipettes. The resulting suspension of tissue fragments was incubated in Hank's balanced salt solution (Gibco BRL) with 2.5 mg/ml trypsin, 1 mM EDTA and 0.1 mg/ml DNase (Boehringer) at 37° C. for 15 minutes. […] The pellet was resuspended in serum free medium (SFM) consisting of Dulbecco's Modified Eagle Medium (D-MEM), 2 mM L-glutamine, 50 U/ml penicillin G sodium and 50 μg/ml streptomycin sulfate (all from Gibco BRL) supplemented by 10% (vol/vol) fetal bovine serum (FBS). The cells were transferred to a standard 100 mm tissue culture dish (Falcon) and incubated at 37° C. for 1-2 hours. After mild shaking, the supernatant containing unattached cells was transferred to a 100 mm collagen-coated dish. […] Cell samples were checked regularly for the expression of GFAP, a marker for astrocytes.
After cell attachment, the culture medium was exchanged for SFM. In antisense experiments, oligonucleotides were added at the same time (T=0). […] After another 12 hours (at T=60), [^3 H]-thymidine (New England Nuclear, 20 Ci/mmol) was added (0.38 μM, 10 μCi/ml). Following an additional 12 hours (T=72), the wells were drained, counts precipitated by ice-cold […] trichloroacetic acid, and the plates left to dry. Counts were solubilized overnight by adding 100 μl 1 N KOH to each well, neutralized with 100 μl 1 N HCl, transferred to liquid scintillation vials and counted in 3 ml of Beckman Ready Safe liquid scintillation cocktail on a Packard 1600 TR counter. […] In this paper, proliferation is expressed as [^3 H]-thymidine incorporation normalized to [35]-methionine incorporation and calculated as [^3 H] dpm/ [35] dpm.

Substance | effect on N-CAM expression (in words) (N-CAM) | effect of oligonucleotide preincubation on inhibition of proliferation by N-CAM [1] | effect of oligonucleotide alone on proliferation [1] | N-CAM level (sum of all molecular forms, mostly 140 kD and 120 kD) (N-CAM; mean ± S.E.M. (n))
5'-AGAUCCUUAG WUCGCAGCAUUGUA-3' (antisense AGAUCCUUAGUUCGCAGCAUUGUA; phosphorothioate linkages, further chemistry not given here) [N-CAM antisense RNA, phosphorothioate oligoribonucleotide complementary to position 205 to 228 of rat N-CAM] | significantly reduced N-CAM expression | weaker inhibitory effect of N-CAM on proliferation | no effect on proliferation | –
5'-GUCCAUGUACAUCUAGUCAGUUGA-3 (chemistry not given here) [random antisense RNA] | no effect on N-CAM expression | no such effect | no effect on proliferation | 87 ± 18 % Control
